Measured values published in BigSolDB 2.1.
Several values for one entry are separate records, joined by “and”; a condition that tells them apart may be missing. Identical values can stand only once.

For `O=C1C[C@@H](c2ccc(O)cc2)Oc2cc(O)cc(O)c21`, the solubility (mole fraction) (in 1,4-dioxane, 298.15 K) was 0.0669, the solubility (mole fraction) (in acetonitrile, 298.15 K) was 0.0473 and the solubility (mole fraction) (in water, 298.15 K) was 1e-06.

Compound `Cc1ncc(CO)c(CO)c1O.Cl` has a solubility (mole fraction) (in water, 278.15 K) of 0.0102, a solubility (mole fraction) (in water, 283.15 K) of 0.012 and a solubility (mole fraction) (in water, 288.15 K) of 0.014. It also gave a solubility (mole fraction) (in water, 293.15 K) of 0.0165, a solubility (mole fraction) (in water, 298.15 K) of 0.0187 and a solubility (mole fraction) (in water, 303.15 K) of 0.0215. The solubility (mole fraction) (in water, 308.15 K) was 0.0245 and the solubility (mole fraction) (in water, 313.15 K) was 0.0288.

With `Oc1cc(O)c2cc1Cc1cc(c(O)cc1O)Cc1cc(c(O)cc1O)Cc1cc(c(O)cc1O)C2` the solubility (mole fraction) (in water, 278.15 K) was 3.22e-06, the solubility (mole fraction) (in water, 283.15 K) was 4.29e-06 and the solubility (mole fraction) (in water, 288.15 K) was 4.86e-06. It also gave a solubility (mole fraction) (in water, 293.15 K) of 6.26e-06, a solubility (mole fraction) (in water, 298.15 K) of 6.59e-06 and a solubility (mole fraction) (in water, 303.15 K) of 7.16e-06. The solubility (mole fraction) (in water, 308.15 K) was 7.68e-06.

With `COc1cc(/C=C/C(=O)CC(=O)/C=C/c2ccc(O)c(OC)c2)ccc1O` the solubility (mole fraction) (in water, 298.15 K) was 1.5e-07, the solubility (mole fraction) (in water, 303.15 K) was 1.7e-07 and the solubility (mole fraction) (in water, 308.15 K) was 1.9e-07. For the same compound, the solubility (mole fraction) (in water, 313.15 K) was 2e-07 and the solubility (mole fraction) (in water, 318.15 K) was 2.2e-07.

`C=C1CC[C@H](O)C/C1=C/C=C1\CCC[C@]2(C)[C@@H]([C@H](C)CCCC(C)C)CC[C@@H]12` showed a solubility (mole fraction) (in water, 273.2 K) of 1.97e-07, a solubility (mole fraction) (in water, 278.2 K) of 2.95e-07 and a solubility (mole fraction) (in water, 283.2 K) of 4.38e-07. The solubility (mole fraction) (in water, 288.2 K) was 5.71e-07 and the solubility (mole fraction) (in water, 298.2 K) was 1.06e-06.

For `CCC(C)C`, the solubility (mole fraction) (in water, 293.2 K) was 1.24e-05.

For `Cc1ccc(-c2cc(C(F)(F)F)nn2-c2ccc(S(N)(=O)=O)cc2)cc1`, the solubility (mole fraction) (in water, 293.2 K) was 7.36e-08, the solubility (mole fraction) (in water, 298.2 K) was 8.02e-08 and the solubility (mole fraction) (in water, 303.2 K) was 9.16e-08. The solubility (mole fraction) (in water, 308.2 K) was 1.27e-07 and the solubility (mole fraction) (in water, 313.2 K) was 1.44e-07.

Compound `c1ccc2c(c1)[nH]c1ccccc12` has a solubility (mole fraction) (in 1-chlorooctane, 298.15 K) of 0.00242, a solubility (mole fraction) (in 1-chlorotetradecane, 298.15 K) of 0.0024 and a solubility (mole fraction) (in chlorocyclohexane, 298.15 K) of 0.00291. It also gave a solubility (mole fraction) (in dibutyl ether, 298.15 K) of 0.00501.

`c1ccc(P(c2ccccc2)c2ccccc2)cc1` gave a solubility (mole fraction) (in ethanol, 303.5 K) of 0.009, a solubility (mole fraction) (in ethanol, 308.3 K) of 0.0117 and a solubility (mole fraction) (in ethanol, 313.3 K) of 0.0162. The solubility (mole fraction) (in ethanol, 318.6 K) was 0.0225, the solubility (mole fraction) (in ethanol, 323.2 K) was 0.0279 and the solubility (mole fraction) (in ethanol, 327.9 K) was 0.0385. For the same compound, the solubility (mole fraction) (in ethanol, 333 K) was 0.0494.

In the case of `CC(=O)Nc1ccc(O)cc1`, the solubility (mole fraction) (in water, 293.15 K) is reported as 0.00155 and 0.00159 and 0.00152, the solubility (mole fraction) (in water, 310.15 K) is reported as 0.00272 and the solubility (mole fraction) (in water, 318.15 K) is reported as 0.0036.

For `Cc1nc2n(c(=O)c1CCN1CCC(c3noc4cc(F)ccc34)CC1)CCCC2`, the solubility (mole fraction) (in water, 298.15 K) was 1e-07, the solubility (mole fraction) (in water, 303.15 K) was 1e-07 and the solubility (mole fraction) (in water, 308.15 K) was 2e-07. The solubility (mole fraction) (in water, 313.15 K) was 2e-07, the solubility (mole fraction) (in water, 318.15 K) was 3e-07 and the solubility (mole fraction) (in water, 323.15 K) was 4e-07. For the same compound, the solubility (mole fraction) (in water, 328.15 K) was 5e-07 and the solubility (mole fraction) (in water, 333.15 K) was 6e-07.

`c1ccc(-c2cnc(-c3ccc(-c4ncc(-c5ccccc5)o4)cc3)o2)cc1` showed a solubility (mole fraction) (in acetone, 298.15 K) of 0.00013, a solubility (mole fraction) (in ethanol, 298.15 K) of 8.43e-06 and a solubility (mole fraction) (in water, 298.15 K) of 7.3e-10.

For `C(=N\Nc1ccccc1)/c1ccco1`, the solubility (mole fraction) (in water, 298.15 K) was 5.73e-07.

`O=C1c2ccccc2C(=O)N1O` showed a solubility (mole fraction) (in acetic acid, 293.2 K) of 0.00298, a solubility (mole fraction) (in acetic acid, 303.2 K) of 0.00394 and a solubility (mole fraction) (in acetic acid, 313.2 K) of 0.00504. It also gave a solubility (mole fraction) (in acetic acid, 323.2 K) of 0.00658, a solubility (mole fraction) (in acetic acid, 333.2 K) of 0.00816 and a solubility (mole fraction) (in acetic acid, 343.2 K) of 0.0103. It also gave a solubility (mole fraction) (in acetic acid, 353.2 K) of 0.0127 and a solubility (mole fraction) (in acetic acid, 363.2 K) of 0.0155.

In the case of `CCC1=C(C)CN(C(=O)NCCc2ccc(S(=O)(=O)NC(=O)NC3CCC(C)CC3)cc2)C1=O` (configuration not stated), the solubility (mole fraction) (in DMAc, 278.15 K) is reported as 0.0106, the solubility (mole fraction) (in DMAc, 283.15 K) is reported as 0.0124 and the solubility (mole fraction) (in DMAc, 288.15 K) is reported as 0.0147. It also gave a solubility (mole fraction) (in DMAc, 293.15 K) of 0.017, a solubility (mole fraction) (in DMAc, 298.15 K) of 0.0199 and a solubility (mole fraction) (in DMAc, 303.15 K) of 0.0227. The solubility (mole fraction) (in DMAc, 308.15 K) was 0.0259, the solubility (mole fraction) (in DMAc, 313.15 K) was 0.0298 and the solubility (mole fraction) (in DMAc, 318.15 K) was 0.0343.

Compound `O=C1Nc2ccccc2C1=O` has a solubility (mole fraction) (in PEG-400, 298.15 K) of 0.0985, a solubility (mole fraction) (in PEG-400, 308.15 K) of 0.109 and a solubility (mole fraction) (in PEG-400, 318.15 K) of 0.121. For the same compound, the solubility (mole fraction) (in PEG-400, 328.15 K) was 0.132, the solubility (mole fraction) (in PEG-400, 338.15 K) was 0.145 and the solubility (mole fraction) (in transcutol, 298.15 K) was 0.52. For the same compound, the solubility (mole fraction) (in transcutol, 308.15 K) was 0.536, the solubility (mole fraction) (in transcutol, 318.15 K) was 0.557 and the solubility (mole fraction) (in transcutol, 328.15 K) was 0.579. It also gave a solubility (mole fraction) (in transcutol, 338.15 K) of 0.594.

Compound `Nc1ccc(S(=O)(=O)Nc2ncccn2)cc1` has a solubility (mole fraction) (in PEG-400, 298.15 K) of 0.0129, a solubility (mole fraction) (in PEG-400, 303.15 K) of 0.0132 and a solubility (mole fraction) (in PEG-400, 308.15 K) of 0.0134. For the same compound, the solubility (mole fraction) (in PEG-400, 313.15 K) was 0.0136, the solubility (mole fraction) (in PEG-400, 318.15 K) was 0.0139 and the solubility (mole fraction) (in n-propanol, 293.15 K) was 3.88e-05. It also gave a solubility (mole fraction) (in n-propanol, 298.15 K) of 4.71e-05, a solubility (mole fraction) (in n-propanol, 303.15 K) of 5.87e-05 and a solubility (mole fraction) (in n-propanol, 308.15 K) of 7.21e-05. For the same compound, the solubility (mole fraction) (in n-propanol, 313.15 K) was 9.13e-05 and the solubility (mole fraction) (in propylene glycol, 298.15 K) was 0.00047.

In the case of `C/C=C/C=C/C(=O)O`, the solubility (mole fraction) (in n-propanol, 283.15 K) is reported as 0.0201, the solubility (mole fraction) (in n-propanol, 288.15 K) is reported as 0.0283 and the solubility (mole fraction) (in n-propanol, 293.15 K) is reported as 0.0389. It also gave a solubility (mole fraction) (in n-propanol, 298.15 K) of 0.0519, a solubility (mole fraction) (in n-propanol, 303.15 K) of 0.0677 and a solubility (mole fraction) (in n-propanol, 308.15 K) of 0.0851. The solubility (mole fraction) (in n-propanol, 313.15 K) was 0.0938, the solubility (mole fraction) (in n-propanol, 318.15 K) was 0.129 and the solubility (mole fraction) (in n-propanol, 323.15 K) was 0.151.

Work on `O=c1[nH]cc(F)c(=O)[nH]1` yielded a solubility (mole fraction) (in THF, 283.15 K) of 0.000217, a solubility (mole fraction) (in THF, 288.15 K) of 0.000286 and a solubility (mole fraction) (in THF, 293.15 K) of 0.000359. For the same compound, the solubility (mole fraction) (in THF, 298.15 K) was 0.000471, the solubility (mole fraction) (in THF, 303.15 K) was 0.000618 and the solubility (mole fraction) (in THF, 308.15 K) was 0.000763. The solubility (mole fraction) (in THF, 313.15 K) was 0.000961, the solubility (mole fraction) (in THF, 318.15 K) was 0.0012 and the solubility (mole fraction) (in THF, 323.15 K) was 0.00151. For the same compound, the solubility (mole fraction) (in water, 298.15 K) was 0.00248.

For `NCCC(=O)O`, the solubility (mole fraction) (in methanol, 288.15 K) was 0.115, the solubility (mole fraction) (in methanol, 293.15 K) was 0.122 and the solubility (mole fraction) (in methanol, 298.15 K) was 0.131. The solubility (mole fraction) (in methanol, 303.15 K) was 0.14, the solubility (mole fraction) (in methanol, 308.15 K) was 0.152 and the solubility (mole fraction) (in methanol, 313.15 K) was 0.164. For the same compound, the solubility (mole fraction) (in methanol, 318.15 K) was 0.173 and the solubility (mole fraction) (in methanol, 323.15 K) was 0.183.

Work on `CN1C(C(=O)Nc2ccccn2)=C(O)c2ccccc2S1(=O)=O` yielded a solubility (mole fraction) (in ethanol, 298.15 K) of 0.000214 and a solubility (mole fraction) (in water, 298.15 K) of 4.01e-07.

With `CC(C)C[C@H](CN)CC(=O)O` the solubility (mole fraction) (in water, 283.15 K) was 0.00349, the solubility (mole fraction) (in water, 298.15 K) was 0.00373 and the solubility (mole fraction) (in water, 308.15 K) was 0.00397. The solubility (mole fraction) (in water, 315.65 K) was 0.00447, the solubility (mole fraction) (in water, 323.15 K) was 0.00486 and the solubility (mole fraction) (in water, 328.15 K) was 0.00531. The solubility (mole fraction) (in water, 338.15 K) was 0.00641.

Compound `NC(CO)(CO)CO` has a solubility (mole fraction) (in methanol, 293.2 K) of 0.0076, a solubility (mole fraction) (in methanol, 298.2 K) of 0.0092 and a solubility (mole fraction) (in methanol, 303.2 K) of 0.0106. For the same compound, the solubility (mole fraction) (in methanol, 308.2 K) was 0.0124 and the solubility (mole fraction) (in methanol, 313.2 K) was 0.0158.

Work on `CS(=O)(=O)c1ccc([C@@H](O)[C@@H](CF)NC(=O)C(Cl)Cl)cc1` yielded a solubility (mole fraction) (in water, 293.15 K) of 5.05e-05, a solubility (mole fraction) (in water, 296.85 K) of 6.15e-05 and a solubility (mole fraction) (in water, 300.75 K) of 8.19e-05. The solubility (mole fraction) (in water, 304.55 K) was 8.52e-05, the solubility (mole fraction) (in water, 308.25 K) was 9.71e-05 and the solubility (mole fraction) (in water, 312.15 K) was 0.000122. It also gave a solubility (mole fraction) (in water, 316.25 K) of 0.000147.

In the case of `O=[N+]([O-])c1ccc(N/N=C/c2cccs2)c([N+](=O)[O-])c1`, the solubility (mole fraction) (in water, 298.15 K) is reported as 7e-09.

`O=c1c(-c2ccc(O)cc2)coc2c([C@@H]3O[C@H](CO)[C@@H](O)[C@H](O)[C@H]3O)c(O)ccc12` showed a solubility (mole fraction) (in methanol, 293.15 K) of 0.00714, a solubility (mole fraction) (in methanol, 303.15 K) of 0.00787 and a solubility (mole fraction) (in methanol, 313.15 K) of 0.00858. For the same compound, the solubility (mole fraction) (in methanol, 323.15 K) was 0.00932 and the solubility (mole fraction) (in methanol, 333.15 K) was 0.0102.
